“Also recorded” adds a separate entry of the source.
Tests used:
LasR = target: T1, LasR (Pseudomonas aeruginosa, UniProt P25084); assay: lasI-gfp reporter agonist assay, PAO-JP2 (plasI-LVAgfp); type: cell-based, P. aeruginosa; conditions: PAO-JP2 (plasI-LVAgfp), compounds made in solution phase, increasing concentrations (1, 100, 400 μM)
T1 construct: endogenous in cells; host or cells: P. aeruginosa PAO-JP2 (lasI, rhlI) harboring plasI-LVAgfp
Description: Since this strain lacks the ability to produce natural AIs due to disruption of both AI synthase genes, activation of LasR relies on the addition of exogenous AI1. Expression of gfp (encoding green fluorescent protein) is under control of the LasR-AI1 inducible lasI promoter, allowing rapid screening for LasR agonists by measuring the level of GFP expression in their presence.
P. aeruginosa strain PAO-JP2 (lasI, rhlI) (Rahme et al., Science 268:1899-1902 (1995), which is hereby incorporated by reference in its entirety) harboring plasI-LVAgfp (Pearson et al., Proc. Natl Acad. Sci. USA 91:197-201 (1994), which is hereby incorporated by reference in its entirety) was grown at 37° C. in LB with 300 μg/ml carbenicillin. For agonist assays, an overnight culture was diluted to an OD600 of 0.1 and transferred to wells of a 96-well plate on which test compounds had previously been added and dried. The final concentration of each analog tested was roughly 400 μM, although this is an overestimate due to purity issues. Cells were then incubated for 6 hours at 37° C. with vigorous shaking. GFP expression was detected with a Molecular Imager (BioRad) (488 nm excitation and 695 nm bandpass filter) and quantified with ImageQuant software. The OD600 of cultures was determined to normalize GFP expression to cell density.
(§1) Reporter strains were grown overnight in LB plus 300 μg/ml carbenicillin at 37° C. and diluted to an OD600 of 0.1. Following an incubation of 1 hour, 200 μl of cell culture was added to individual wells of a 96 well plate containing appropriate amount of test compound(s). Plates were incubated for 6 hours and then scanned for fluorescence emission with a Molecular Imager (488 nm excitation and 695 nm bandpass filter). Fluorescence was quantified with ImageQuant software.

RhlR = assay: rhlI-gfp reporter antagonist assay, PAO-JP2 (prhlI-LVAgfp); type: cell-based, P. aeruginosa; conditions: 50 μM compound, competing against 1 μM AI1 and 10 μM AI2
Protocol: Each compound in the library was tested for antagonist activity using the same reporter strain, PAO-JP2 (plasI-LVAgfp) (de Kievit et al., Appl. Environ. Microbiol. 67:865-1873 (2001), which is hereby incorporated by reference in its entirety) to find compounds that could compete against AI1 and reduce GFP expression. The methods were the same as described in Example 2 (GFP Reporter Assay), except that 1 μM AI1 was added to each well in combination with the library compound. The fluorescence/OD600 of each compound competing against AI1 was reported relative to the fluorescence/OD600 of the positive control of AI1 alone, which was set to 1. When strain PAO-JP2 (prhlI-LVAgfp) was used, the positive control was 1 μM AI1 and 10 μM AI2.
3- oxo-C12-D10 was synthesized in solution phase, where the natural side chain was coupled with D10 and purified by chromatography. To determine if the same structural motif can be applied to inhibition of the RhlR-AI2 interaction, C4-D10 was also synthesized. Assays were performed with both the lasI-gfp reporter PAO-JP2 (plasI-LVAgfp) and an RhlR-AI2 controlled rhlI-gfp reporter, PAO-JP2 (prhlI-LVAgfp) (FIGS. 10A-C) (de Kievit et al., Appl. Environ. Microbiol. 67:865-1873 (2001), which is hereby incorporated by reference in its entirety).
as §1
Next the ability of 2 and 3 to inhibit the rhlI-gfp reporter strain PAO-JP2 (prhlI-LVAgfp) was tested, since this expression is also AI1-dependent.

Elastase B [1] = assay: elastase (Elastin Congo Red) assay, strain PAO-JP2; type: cell-based, P. aeruginosa PAO-JP2; conditions: PAO-JP2, 50 μM compound, 5 μM AI1 and 10 μM AI2
Protocol: (§2) Pyocyanin, elastase, and biofilm were assayed as previously described (Smith et al., Chem. Biol. 10:81-89 (2003), which is hereby incorporated by reference in its entirety). Elastase activity produced by P. aeruginosa in the presence of AIs and competing 3-oxo-C12-D10 was determined by measuring breakdown of the substrate Elastin Congo Red.
(§3) For the elastase B assay, cells (PAO-JP2) were grown overnight in PTSB media (5% Peptone, 0.1% Tryptic Soy Broth) at 37° C., washed and diluted to an OD600 of 0.05, grown to mid-log phase, washed again, and re-suspended to an OD600 of 0.05. The culture was then added to test tubes containing test compound(s) and grown for 6 hours. Elastase B activity was quantified by incubation of 100 μl of filtered culture supernatant with 5 mg Elastin Congo Red substrate and 1 ml of 10 mM Tris pH 7.2, 1 mM CaCl2 for 6 hours at 37° C. with agitation. Elastase B activity is represented by the OD495 of the enzyme assay following reaction quenching with EDTA and centrifugation to remove unreacted substrate, divided by the OD600 of the cell culture. The same assay was run with strain PAO-1, however no exogenous autoinducers were added.

Elastase B [2] = assay: elastase (Elastin Congo Red) assay, wild type strain PAO1; type: cell-based, P. aeruginosa PAO1; conditions: wild type PAO1, 100 μM compound
Protocol: as §2, §3

pyocyanin [3] = assay: pyocyanin assay, strain PAO-JP2; type: cell-based, P. aeruginosa PAO-JP2; conditions: PAO-JP2, 25 μM each of AI1 and AI2, 18 hours
Protocol: (§4) For the pyocyanin assay, cells were grown overnight in LB then washed in fresh media and diluted to an OD600 of 0.05. This culture was grown for 3-4 hours to mid-log phase (OD600 of 0.3-0.5), then diluted to an OD600 of 0.05, and aliquoted to test tubes containing an appropriate amount of test compound(s). Following 18 hours of growth, pyocyanin was extracted from filtered culture supernatants and quantified using standard methods (Essar et al., J. Bacteriol. 172:884-900 (1990), which is hereby incorporated by reference in its entirety).

pyocyanin [4] = assay: pyocyanin assay, wild type strain PAO1; type: cell-based, P. aeruginosa PAO1; conditions: wild type PAO1, no AIs added
Protocol: as §4

[5] = test system: PAO-JP2 (pTdK-GFP) biofilm; assay: static biofilm assay, PAO-JP2 (pTdK-GFP); type: cell-based, P. aeruginosa; conditions: PAO-JP2 (pTdK-GFP) with exogenous AIs, 24-hour static assay
Protocol: Compound 3 was tested for its effect on biofilm development in a 24-hour assay that looks at the early stages of biofilm formation. […] Cultures were grown at 37° C. with shaking for 30 minutes, and then allowed to sit at 37° C. for an additional 23.5 hours. Coverslips were then rinsed and placed on slides for visualization using an MRC1024 Laser Scanning Microscope (BioRad) with a Nikon Fluor-60X oil emersion objective lens (NA=1.4), 488 nm Argon Laser and OG515 filter.

lac promoter = assay: GFP expression from lac promoter, PAO-JP2 (pTdK-GFP) (specificity control); type: cell-based, P. aeruginosa; conditions: lasI promoter replaced with a lac promoter

T1 sequence (P25084 whole entry): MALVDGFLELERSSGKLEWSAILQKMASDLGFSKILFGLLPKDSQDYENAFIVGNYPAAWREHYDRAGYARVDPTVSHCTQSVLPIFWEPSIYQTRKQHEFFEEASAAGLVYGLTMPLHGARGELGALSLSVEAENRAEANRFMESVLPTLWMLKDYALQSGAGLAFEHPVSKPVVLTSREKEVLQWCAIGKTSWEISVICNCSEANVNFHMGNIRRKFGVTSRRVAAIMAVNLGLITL

CCCCCCCCCC(=O)CC(=O)NC1CCCCC1=O (racemic) [Compound 3, N-(2-oxocyclohexyl)-3-oxododecanamide]
agonist activity (induction of lasI-gfp reporter) (LasR): nearly unable to induce the reporter; also recorded: no agonist activity
inhibition of GFP expression (rhlI-gfp) (RhlR): greater than 60%
elastase activity, % of the positive control level (Elastase B [1]): 60%
elastase activity, % of the control level (Elastase B [2]): 30%
effect on pyocyanin production (pyocyanin [3]): nearly complete inhibition
effect on pyocyanin production (pyocyanin [4]): very similar inhibitory effect
effect on biofilm formation [5]: completely inhibited
inhibition of GFP expression from lac promoter (lac promoter): inability to inhibit GFP expression
